We go through 18 compounds from patent US9227967B2, “Inhibitor compounds of semicarbazide-sensitive amine oxidases” (Proximagen Limited, priority 2010, dated 2016).

Where a name gives a salt, the structure may show the parent alone.

This assay deals with T1, human SSAO (Homo sapiens, UniProt Q16853).
T1 construct: made in house
T1 sequence (Q16853 29-763 limits assumed): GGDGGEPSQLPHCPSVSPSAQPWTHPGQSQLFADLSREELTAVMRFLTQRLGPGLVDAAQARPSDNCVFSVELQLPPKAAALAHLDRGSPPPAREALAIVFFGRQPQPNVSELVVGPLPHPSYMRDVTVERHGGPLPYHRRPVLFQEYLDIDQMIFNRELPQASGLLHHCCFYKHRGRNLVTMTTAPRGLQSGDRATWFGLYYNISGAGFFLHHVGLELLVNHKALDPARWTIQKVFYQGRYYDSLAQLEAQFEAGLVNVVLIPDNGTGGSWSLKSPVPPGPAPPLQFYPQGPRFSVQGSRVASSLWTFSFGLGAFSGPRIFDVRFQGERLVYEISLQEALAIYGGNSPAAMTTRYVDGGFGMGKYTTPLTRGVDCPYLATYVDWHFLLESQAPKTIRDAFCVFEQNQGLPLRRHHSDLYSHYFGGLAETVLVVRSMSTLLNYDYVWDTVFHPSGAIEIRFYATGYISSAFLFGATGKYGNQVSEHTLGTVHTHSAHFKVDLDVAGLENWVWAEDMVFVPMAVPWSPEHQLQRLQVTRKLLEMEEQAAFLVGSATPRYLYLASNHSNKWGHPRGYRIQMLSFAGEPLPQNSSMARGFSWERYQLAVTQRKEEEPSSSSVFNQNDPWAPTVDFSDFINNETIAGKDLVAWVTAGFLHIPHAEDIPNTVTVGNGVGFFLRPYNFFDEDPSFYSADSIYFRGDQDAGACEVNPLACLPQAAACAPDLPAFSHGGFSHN
In words: SSAO enzyme inhibition assay (benzylamine substrate; HRP-coupled hydrogen peroxide detection or 14C-benzaldehyde detection). Format: biochemical. The following applies: purified recombinantly expressed human SSAO, benzylamine as substrate, r.t.; read-out: SSAO inhibitory activity IC50. On the procedure:
All primary assays were performed at r.t. with purified recombinantly expressed human SSAO. Enzyme was prepared essentially as described in Öhman et al. (Protein Expression and Purification 46 (2006) 321-331). In addition, secondary- and selectivity assays were performed using SSAO prepared from various tissues or purified rat recombinant SSAO. The enzyme activity was assayed with benzylamine as substrate by measuring either benzaldehyde production, using ^14C-labeled substrate, or by utilizing the production of hydrogen peroxide in a horseradish peroxidise (HRP) coupled reaction. Briefly, test compounds were dissolved in dimethyl sulfoxide (DMSO) to a concentration of 10 mM. Dose-response measurements were assayed by either creating 1:10 serial dilutions in DMSO to produce a 7 point curve or by making 1:3 serial dilutions in DMSO to produce 11 point curves. The top concentrations were adjusted depending on the potency of the compounds and subsequent dilution in reaction buffer yielded a final DMSO concentration ≦2%.
In a horseradish peroxidise (HRP) coupled reaction, hydrogen peroxide oxidation of 10-acetyl-3,7-dihydroxyphenoxazine produced resorufin, which is a highly fluorescent compound (Zhout and Panchuk-Voloshina. Analytical Biochemistry 253 (1997) 169-174; Amplex® Red Hydrogen Peroxide/peroxidise Assay kit, Invitrogen A22188). Enzyme and compounds in 50 mM sodium phosphate, pH 7.4 were set to pre-incubate in flat-bottomed microtiter plates for approximately 15 minutes before initiating the reaction by addition of a mixture of HRP, benzylamine and Amplex reagent. Benzylamine concentration was fixed at a concentration corresponding to the Michaelis constant, determined using standard procedures. Fluorescence intensity was then measured at several time points during 1-2 hours, exciting at 544 nm n and reading the emission at 590 nm. For the human SSAO assay final concentrations of the reagents in the assay wells were: SSAO enzyme 1 μg/ml, benzylamine 100 μM, Amplex reagent 20 μM, HRP 0.1 U/mL and varying concentrations of test compound. The inhibition was measured as % decrease of the signal compared to a control without inhibitor (only diluted DMSO). The background signal from a sample containing no SSAO enzyme was subtracted from all data points. Data was fitted to a four parameter logistic model and IC50 values were calculated using the GraphPad Prism 4 or XLfit 4 programs.
SSAO activity was assayed using 14C-labeled benzylamine and analysed by measuring radioactive benzaldehyde. In a white 96-well optiplate (Packard), 20 μL of diluted test compound was pre-incubated at r.t. with 20 μL SSAO enzyme for approximately 15 minutes with continuous agitation. All dilutions were made with PBS. The reaction was initiated by adding 20 μL of the benzylamine substrate solution containing [7-14C] Benzylamine hydrochloride (CFA589, GE Healthcare). The plate was incubated for 1 hour as above after which the reaction was stopped by acidification (10 μL 1 M HCl). Then 90 μL Micro Scint-E solution (Perkin-Elmer) was added to each well and the plate was continuously mixed for 15 minutes. Phase separation occurred instantly and activity was read in a Topcount scintillation counter (Perkin-Elmer). In the final reaction well, human recombinant SSAO concentration was 10 μg/ml. In order to optimize sensitivity, the substrate concentration was decreased as compared to the HRP coupled assay in order to get a higher fraction of radioactive product. In the human SSAO assay, benzylamine concentration was 40 μM (0.2 μCi/mL). Data was analysed as above.

On to `COC(=O)C1COCCN1c1nn(-c2ccc(C)cc2)c2cnccc12` (stereo not drawn) [Compound 66, Methyl 4-[1-(4-methylphenyl)-1H-pyrazolo[3,4-c]pyridin-3-yl]morpholine-3-carboxylate], for which the 50% inhibitory concentration (IC50) (commonly the concentration that gives 50% inhibition) was under 0.1 µM. In the case of `Cc1ccc(-n2nc(N3CCCOCC3)c3ccncc32)cc1` [Compound 67, 4-[1-(4-Methylphenyl)-1H-pyrazolo[3,4-c]pyridin-3-yl]-1,4-oxazepane] it was under 0.1 µM.

As for `Cc1ccc(-n2nc(N3CCNC(=O)C3)c3ccncc32)cc1` [Compound 68, 4-[1-(4-Methylphenyl)-1H-pyrazolo[3,4-c]pyridin-3-yl]piperazin-2-one], the IC50 was under 0.1 µM. In the case of `COCCN(C)c1nn(-c2ccc(C)cc2)c2cnccc12` [Compound 69, N-(2-Methoxyethyl)-N-methyl-1-(4-methylphenyl)-1H-pyrazolo[3,4-c]pyridin-3-amine] it was 0.1 to 0.5 µM; in that of `Clc1ccc(-n2nc(N3CCNCC3)c3ccncc32)cc1` [Compound 70, 1-[1-(4-Chlorophenyl)-1H-pyrazolo[3,4-c]pyridin-3-yl]piperazine], 0.5 to 2.5 µM.

Take `NC1CCN(c2nn(-c3ccc(Cl)cc3)c3cnccc23)CC1` [Compound 71, 1-[1-(4-Chlorophenyl)-1H-pyrazolo[3,4-c]pyridin-3-yl]piperidin-4-amine]: the half-inhibitory concentration (IC50) is 0.1 to 0.5 µM. The value for `Cc1ccc(-n2nc(N3CCOC(CN)C3)c3ccncc32)cc1` (stereo not drawn) [Compound 72, {4-[1-(4-Methylphenyl)-1H-pyrazolo[3,4-c]pyridin-3-yl]morpholin-2-yl}methanamine] was 0.1 to 0.5 µM; that for `Cc1ccc(-n2nc(N3CCC(O)CC3)c3ccncc32)cc1` [Compound 74, 1-[1-(4-Methylphenyl)-1H-pyrazolo[3,4-c]pyridin-3-yl]piperidin-4-ol] was under 0.1 µM. As for `Clc1ccc(-n2nc(N3CCN(Cc4cc[nH]n4)CC3)c3ccncc32)cc1` [Compound 75, 1-[1-(4-Chlorophenyl)-1H-pyrazolo[3,4-c]pyridin-3-yl]-4-(1H-pyrazol-3-ylmethyl)piperazine], the IC50 is 0.1 to 0.5 µM. The value for `NCCC(=O)N1CCN(c2nn(-c3ccc(Cl)cc3)c3cnccc23)CC1` [Compound 76] was 0.1 to 0.5 µM; that for `Cc1ccc(-n2nc(N3CCOCC3C(N)=O)c3ccncc32)cc1` (stereo not drawn) [Compound 77, 4-[1-(4-Methylphenyl)-1H-pyrazolo[3,4-c]pyridin-3-yl]morpholine-3-carboxamide] was 0.5 to 2.5 µM. The value for `Cc1ccc(-n2nc(N3CCOCC3C(=O)N3CCOCC3)c3ccncc32)cc1` (stereo not drawn) [Compound 78, 4-[1-(4-Methylphenyl)-1H-pyrazolo[3,4-c]pyridin-3-yl]-3-[(morpholin-4-yl)carbonyl]morpholine] was 0.5 to 2.5 µM; that for `Cc1ccc(-n2nc(N3CCOCC3C(=O)NCCN)c3ccncc32)cc1` (stereo not drawn) [Compound 79, N-(2-Aminoethyl)-4-[1-(4-methylphenyl)-1H-pyrazolo[3,4-c]pyridin-3-yl]morpholine-3-carboxamide dihydrochloride] was 0.1 to 0.5 µM; that for `Clc1ccc(-n2nc(C3CCOCC3)c3ccncc32)cc1` [Compound 80, 1-(4-Chlorophenyl)-3-(oxan-4-yl)-1H-pyrazolo[3,4-c]pyridine] was 0.1 to 0.5 µM. In the case of `Cc1ccc(-n2nc(C3CCOC3)c3ccncc32)cc1` (stereo not drawn) [Compound 81, 1-(4-Methylphenyl)-3-(oxolan-3-yl)-1H-pyrazolo[3,4-c]pyridine] it was 0.1 to 0.5 µM; in that of `Cc1ccc(-n2nc(C3CCOCC3)c3ccncc32)cc1` [Compound 82, 1-(4-Methylphenyl)-3-(oxan-4-yl)-1H-pyrazolo[3,4-c]pyridine], 0.1 to 0.5 µM; in that of `Fc1ccc(-n2nc(C3CCOCC3)c3ccncc32)cc1` [Compound 83, 1-(4-Fluorophenyl)-3-(oxan-4-yl)-1H-pyrazolo[3,4-c]pyridine], 0.1 to 0.5 µM. `Clc1ccc(-n2nc(C3CCNCC3)c3ccncc32)cc1` [Compound 84, 4-[1-(4-Chlorophenyl)-1H-pyrazolo[3,4-c]pyridin-3-yl]piperidine]: the half-inhibitory concentration (IC50) was in the range of 0.1 to 0.5 µM.
